Laboratory results reported in patent US20210227869A1, “Formula with a specific beta-lactoglobulin peptide” (N.V. Nutricia, priority 2018, published 2021).

Tests used:
[1] = test system: cow's milk-specific T-cell line TCL C; assay: T-cell proliferation assay; assay type: cell-based, human; settings: synthetic peptide, SI≥2 considered positive, FIG. 2
Procedure: (§1) Synthetic peptides were obtained from JPT technologies. Only peptides containing at least 9 AAs were taken into account, as this is the minimal size for binding to MHC class II molecules and subsequent T-cell recognition (Holland et al, Front Immunol 2013 Jul. 1; 4:172.) Synthetic peptides (JPT technologies) identical to the peptides identified in all batches of the HP of example 1 were dissolved in dimethylsulfoxide (Sigma Aldrich) at a concentration of 5.3 mM. The peptides were tested on cow's milk-specific T-cell lines (TCLs) from three different donors. The peptides were tested on cow's milk protein-specific T-cell lines (TCLs) from three infant donors, diagnosed with cow's milk protein allergy. […] Proliferation was determined as described previously (Ruiter et al, Clin Exp Allergy 2006, 36(3):303-310). Stimulation indexes (Sls, ratio between proliferation of allergen/peptide-stimulated and non-stimulated T cells) were calculated and a SI≥2 was considered positive.
(§2) To confirm that the peptides identified in HP were recognized by T cells, synthetic peptides identical to these identified peptides were tested on cow's milk-specific human TCLs. As there was a considered overlap between the identified peptides, five peptides were tested (Table 7) that were identified in all batches and differed with more than 9A from each other. All tested peptides were able to induce proliferation (FIG. 2). […] This was also seen with the in silico prediction data (data not shown). […] As peptide LIV . . . […] SLL (AA #1-32) did, the region containing AA #28-32 (DISLL) was essential for the response of TCL A. Unexpectedly, TCL C recognized peptide LIV . . . AAS (AA #1-27), while the longer peptide containing the same sequence with 5 additional AAs, LIV . . .

[2] = test system: cow's milk-specific T-cell line TCL A; assay: T-cell proliferation assay; assay type: cell-based, human; settings: synthetic peptide, SI≥2 considered positive, FIG. 2
Procedure: as §1, §2

## LIVTQTMKGLDIQKVAGTWYSLAMAAS (beta-lactoglobulin peptide fragment) [SEQ ID NO: 9]
[1]
  T cell proliferation (stimulation index): recognized
[2]
  T cell proliferation (stimulation index): not able to induce proliferation

## LIVTQTMKGLDIQKVAGTWYSLAMAASDISLL (beta-lactoglobulin peptide fragment) [SEQ ID NO: 11]
[1]
  T cell proliferation (stimulation index): not able to induce a proliferative response
